We go through ten compounds from ChEMBL document CHEMBL1201862, “PubChem BioAssay data set” (2004).

Molecules are shown by their SMILES.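 Five concentrations, 48 hours, 96-well plates. GI50 = concentration required for 50% inhibition of growth.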 Activity calls are given as the source filed them. Rule as the data show it: active = GI50 up to about 1.1 µM and inactive = higher. Bounds are passed on as bounds.

Test systems include NCI-H23; NCI-H522; SK-MEL-2; SNB-19; TK-10; IGROV-1; U-251; 786-0; EKVX; CCRF-CEM; KM-20L2; HCT-116; SF-295; SF-539; ACHN; NCI-H226; OVCAR-5.
Common to all, as to test: NCI anticancer screen, dose series, 48 h

For `COC(=O)c1c(N)n[nH]c1N`, the GI50 in the experiment on NCI-H23, in the experiment with NCI-H522, in the experiment on SK-MEL-2, in the experiment on SNB-19, with TK-10 and in the experiment with IGROV-1 was > 100 µM (inactive) each time. Further, the GI50 in the experiment on U-251, with 786-0, in the experiment on EKVX, in the experiment on CCRF-CEM, in the experiment with KM-20L2 and in the experiment with HCT-116 was > 100 µM (inactive) each time. The GI50 with SF-295 and in the experiment with SF-539 was > 100 µM (inactive) in each case.
In the case of `CCO/C=C1\N=C(c2ccc(Cl)c(Cl)c2)OC1=O`, the GI50 with NCI-H23 was > 100 µM (inactive); in the experiment on NCI-H522, 89.5 µM (inactive); in the experiment on SK-MEL-2 it was > 100 µM (inactive); in the experiment with SNB-19, > 100 µM (inactive); with ACHN it was > 100 µM (inactive); with TK-10, > 100 µM (inactive). The GI50 was > 100 µM (inactive) with IGROV-1; 30.5 µM (inactive) with NCI-H226; > 100 µM (inactive) with 786-0; 41 µM (inactive) with EKVX; > 100 µM (inactive) with CCRF-CEM; > 100 µM (inactive) in the experiment on KM-20L2. The GI50 with SF-295, in the experiment with SF-539 and in the experiment with OVCAR-5 was > 100 µM (inactive) throughout.
For `COC(=O)C(=O)C(C(=O)C(=O)Nc1cc([N+](=O)[O-])ccc1C#N)c1nc2ccccc2nc1O` (centres undefined), the GI50 in the experiment on NCI-H23, in the experiment with NCI-H522, in the experiment on SNB-19, with ACHN, in the experiment with TK-10 and in the experiment on IGROV-1 was > 100 µM (inactive) throughout. Also, the GI50 in the experiment on NCI-H226 is > 100 µM (inactive); with 786-0, > 100 µM (inactive); in the experiment with EKVX it was 35.5 µM (inactive); in the experiment with CCRF-CEM, > 100 µM (inactive); in the experiment on KM-20L2 it was > 100 µM (inactive); in the experiment with HCT-116, > 100 µM (inactive). In addition, the GI50 in the experiment on SF-295 and in the experiment on SF-539 was > 100 µM (inactive) in each case.
On to `COC(=O)C1=C(C(=O)OC)C2(c3ccccc3)OC1(c1ccccc1)c1cc3ccccc3cc12`, for which the GI50 in the experiment on NCI-H23 was 1.92 µM (inactive); in the experiment with NCI-H522, 1.23 µM (inactive); with SK-MEL-2 it was 1.64 µM (inactive); in the experiment with SNB-19, 4.2 µM (inactive); in the experiment with ACHN it was 1.68 µM (inactive); with TK-10, 2.05 µM (inactive). The GI50 with IGROV-1 is 1.9 µM (inactive); in the experiment with U-251 it was 6.43 µM (inactive); with 786-0, 1.4 µM (inactive); in the experiment with EKVX, 1.8 µM (inactive); in the experiment on CCRF-CEM it was 0.451 µM (active); in the experiment with KM-20L2, 1.88 µM (inactive). For the same compound, the GI50 with SF-295 was 6.28 µM (inactive); in the experiment on SF-539 it was 1.67 µM (inactive); with OVCAR-5, 1.91 µM (inactive).
With `c1ccc(C(c2ccccc2)c2ccccn2)cc1`, the GI50 in the experiment with NCI-H23, in the experiment with SK-MEL-2, in the experiment on SNB-19, in the experiment on ACHN, with TK-10 and with IGROV-1 was > 100 µM (inactive) in each case. The GI50 with NCI-H226, in the experiment with U-251, with 786-0, in the experiment with EKVX, in the experiment with CCRF-CEM and in the experiment on KM-20L2 was > 100 µM (inactive) in each case. Moreover, the GI50 in the experiment with HCT-116, in the experiment on SF-295, in the experiment on SF-539 and with OVCAR-5 was > 100 µM (inactive) each time.
With `Cc1c2n(c(=O)[nH]c1=O)C1OC(CO)C(N=[N+]=[N-])C1O2` (centres undefined), the GI50 is > 100 µM (inactive) in the experiment with NCI-H23; 90.6 µM (inactive) in the experiment on NCI-H522; > 100 µM (inactive) in the experiment with SK-MEL-2; > 100 µM (inactive) in the experiment with SNB-19; > 100 µM (inactive) with ACHN; > 100 µM (inactive) in the experiment on TK-10. For the same compound, the GI50 in the experiment on IGROV-1 is > 100 µM (inactive); in the experiment on NCI-H226, > 100 µM (inactive); with U-251, > 100 µM (inactive); in the experiment on 786-0, > 100 µM (inactive); in the experiment with EKVX, 55.3 µM (inactive); in the experiment with CCRF-CEM, > 100 µM (inactive). Besides, the GI50 in the experiment with KM-20L2, in the experiment on HCT-116, in the experiment on SF-295 and with SF-539 was > 100 µM (inactive) throughout.
In the case of `CN(CC1NCCCC1O)C12CC3CC(CC(C3)C1)C2` (centres undefined), the GI50 in the experiment on NCI-H23, in the experiment with NCI-H522, with SNB-19, in the experiment on ACHN, in the experiment with TK-10 and with IGROV-1 was > 100 µM (inactive) each time. Further, the GI50 with NCI-H226, with U-251, in the experiment on 786-0, with EKVX, in the experiment with CCRF-CEM and in the experiment with KM-20L2 was > 100 µM (inactive) throughout. Besides, the GI50 in the experiment on SF-295, with SF-539 and with OVCAR-5 was > 100 µM (inactive) each time.
Take `CCOC(=O)CN(c1ccccc1)c1nc(=[N+](C)C)ss1`: the GI50 was 0.24 µM (active) in the experiment on NCI-H522; 19.8 µM (inactive) in the experiment with SK-MEL-2; 61.9 µM (inactive) with SNB-19; 35.7 µM (inactive) in the experiment with ACHN; 47.4 µM (inactive) with TK-10; > 10 µM (inactive) in the experiment with IGROV-1. The GI50 in the experiment with NCI-H226 was 23.8 µM (inactive); in the experiment on U-251, 17.9 µM (inactive); in the experiment on 786-0, 37.9 µM (inactive); with CCRF-CEM, 0.979 µM (active); in the experiment on KM-20L2, 54.7 µM (inactive); in the experiment on HCT-116, 5.65 µM (inactive). In the experiment with SF-539, the GI50 was 40.1 µM (inactive).
As to `CC(CCc1ccc2c(c1)c(N)c1ccc(N)cc1[n+]2[O-])CC(C)(C)C` (centres undefined), the GI50 is 1.31 µM (inactive) in the experiment with NCI-H23; 1.77 µM (inactive) in the experiment with SK-MEL-2; 1.73 µM (inactive) in the experiment on ACHN; 1.83 µM (inactive) with TK-10; 1.49 µM (inactive) in the experiment on IGROV-1; 1.85 µM (inactive) in the experiment with NCI-H226. For the same compound, the GI50 in the experiment with U-251 is 1.38 µM (inactive); in the experiment with 786-0 it was 1.5 µM (inactive); in the experiment on EKVX it was 1.67 µM (inactive); in the experiment with CCRF-CEM it was 0.542 µM (active); with KM-20L2 it was 1.37 µM (inactive); in the experiment on HCT-116 it was 1.93 µM (inactive). Also, the GI50 in the experiment on SF-295 is 1.76 µM (inactive); in the experiment on SF-539, 1.93 µM (inactive); in the experiment on OVCAR-5, 1.48 µM (inactive).
For the compound `CCc1ccccc1NC(=O)CC1NC(=O)CS1` (centres undefined), the GI50 in the experiment on NCI-H23, with NCI-H522, in the experiment with SK-MEL-2, in the experiment with SNB-19, in the experiment with TK-10 and with IGROV-1 was > 100 µM (inactive) in each case. In addition, the GI50 in the experiment on NCI-H226, in the experiment with U-251, in the experiment on 786-0, in the experiment on EKVX, with CCRF-CEM and with KM-20L2 was > 100 µM (inactive) in each case. The GI50 with HCT-116, with SF-295, in the experiment on SF-539 and in the experiment on OVCAR-5 was > 100 µM (inactive) throughout.
